“And” between values parts separate entries of the source, which are not always exact repeats. Identical values can stand only once. Inconclusive results and toxic doses are left out. Cut-off read from the data, not from the text of the source: active = T/C of 150% or more; inactive = T/C below 125%.
Test system: L1210 leukemia ip in BDF1 mice, survival T/C
Assay: NCI In Vivo Anticancer Drug Screen. Data for tumor model L1210 Leukemia (intraperitoneal) in B6D2F1 (BDF1) mice
Conditions: endpoint: mean survival time, higher = longer survival
Summary of the method: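 Transplanted-tumor mice were given test agent; controls received vehicle only. Survival readings from the two groups were divided (treated over control).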

[1] = dose: 50.0 mg/kg/injection, schedule: Q01DX001 (ip), vehicle: saline
[2] = dose: 100.0 mg/kg/injection, schedule: Q01DX001 (ip), vehicle: saline
[3] = dose: 400.0 mg/kg/injection, schedule: Q01DX001 (ip), vehicle: saline
[4] = dose: 100.0 mg/kg/injection, schedule: Q04DX003 (ip), vehicle: saline
[5] = dose: 200.0 mg/kg/injection, schedule: Q04DX003 (ip), vehicle: saline
[6] = dose: 100.0 mg/kg/injection, schedule: Q04DX003 (ip), vehicle: Klucel (hydroxypropylcellulose) (HPC)
[7] = dose: 200.0 mg/kg/injection, schedule: Q04DX003 (ip), vehicle: Klucel (hydroxypropylcellulose) (HPC)
[8] = dose: 100.0 mg/kg/injection, schedule: Q01DX009 (ip), vehicle: saline with Tween-80
[9] = dose: 100.0 mg/kg/injection, schedule: Q04DX003 (ip), vehicle: saline with Tween-80
[10] = dose: 200.0 mg/kg/injection, schedule: Q04DX003 (ip), vehicle: saline with Tween-80
[11] = dose: 400.0 mg/kg/injection, schedule: Q04DX003 (ip), vehicle: saline with Tween-80

Measured: T/C

IC[P+](c1ccccc1)(c1ccccc1)c1ccccc1
inactive: dose: 75.0 mg/kg/injection, schedule: Q01DX001 (ip), vehicle: carboxymethylcellulose (CMC) 106 % of control

Nc1c(Cl)ncnc1Nc1cccc(C(=O)O)c1
inactive: [1] 98 % of control | [2] 108 % of control | dose: 200.0 mg/kg/injection, schedule: Q01DX001 (ip), vehicle: saline 102 % of control | [3] 93 % of control

O=[N+]([O-])c1cc([N+](=O)[O-])cc(S(=O)(=O)O)c1
inactive: dose: 25.0 mg/kg/injection, schedule: Q01DX009 (ip), vehicle: saline 106 % of control | dose: 50.0 mg/kg/injection, schedule: Q01DX009 (ip), vehicle: saline 105 % of control | dose: 100.0 mg/kg/injection, schedule: Q01DX009 (ip), vehicle: saline 100 % of control and 111 % of control | [4] 105 % of control | [5] 105 % of control

CNC(=S)N/N=C/c1ccccn1
inactive: dose: 25.0 mg/kg/injection, schedule: Q04DX003 (ip), vehicle: Klucel (hydroxypropylcellulose) (HPC) 112 % of control | dose: 50.0 mg/kg/injection, schedule: Q04DX003 (ip), vehicle: Klucel (hydroxypropylcellulose) (HPC) 97 % of control | [6] 93 % of control | [7] 101 % of control

O=C(O)C(O)(C1CCCCC1)C1CCC2CCC3CCCC1C32 (configuration not stated)
inactive: [8] 87 % of control

C/C(=C\C(C)(C)C(C)(C)C)C(C)(C)C
inactive: dose: 50.0 mg/kg/injection, schedule: Q04DX002 (ip), vehicle: saline with Tween-80 100 % of control | dose: 100.0 mg/kg/injection, schedule: Q04DX002 (ip), vehicle: saline with Tween-80 95 % of control | dose: 200.0 mg/kg/injection, schedule: Q04DX002 (ip), vehicle: saline with Tween-80 92 % of control | dose: 400.0 mg/kg/injection, schedule: Q04DX002 (ip), vehicle: saline with Tween-80 92 % of control

O=[N+]([O-])c1cccc(S(=O)(=O)O)c1.[Fe]
inactive: [4] 95 % of control | [5] 89 % of control

CCCOc1ccc([N+](=O)[O-])cc1N
inactive: dose: 100.0 mg/kg/injection, schedule: Q01DX001 (ip), vehicle: carboxymethylcellulose (CMC) 96 % of control | dose: 200.0 mg/kg/injection, schedule: Q01DX001 (ip), vehicle: carboxymethylcellulose (CMC) 100 % of control | dose: 400.0 mg/kg/injection, schedule: Q01DX001 (ip), vehicle: carboxymethylcellulose (CMC) 94 % of control

Nc1ccc(S(=O)(=O)Nc2ccc(S(=O)(=O)O)c3ccc(S(=O)(=O)O)cc23)cc1
inactive: dose: 75.0 mg/kg/injection, schedule: Q04DX003 (ip), vehicle: Klucel (hydroxypropylcellulose) (HPC) 95 % of control | dose: 150.0 mg/kg/injection, schedule: Q04DX003 (ip), vehicle: Klucel (hydroxypropylcellulose) (HPC) 93 % of control | dose: 300.0 mg/kg/injection, schedule: Q04DX003 (ip), vehicle: Klucel (hydroxypropylcellulose) (HPC) 98 % of control

O=C1NCC2(O1)c1ccccc1-c1ccccc12
inactive: dose: 25.6 mg/kg/injection, schedule: Q04DX002 (ip), vehicle: saline with Tween-80 92 % of control | dose: 64.0 mg/kg/injection, schedule: Q04DX002 (ip), vehicle: saline with Tween-80 98 % of control | dose: 160.0 mg/kg/injection, schedule: Q04DX002 (ip), vehicle: saline with Tween-80 113 % of control

OCCc1c[nH]c2ccccc12
inactive: [6] 97 % of control | [7] 94 % of control | dose: 400.0 mg/kg/injection, schedule: Q04DX003 (ip), vehicle: Klucel (hydroxypropylcellulose) (HPC) 97 % of control

C=CS(=O)(=O)c1ccc(N)cc1
inactive: dose: 100.0 mg/kg/injection, schedule: Q01DX009 (ip), vehicle: Klucel (hydroxypropylcellulose) (HPC) 103 % of control | dose: 200.0 mg/kg/injection, schedule: Q01DX009 (ip), vehicle: Klucel (hydroxypropylcellulose) (HPC) 95 % of control

CCC(c1ccc(OC)cc1)C(CC)c1ccc(O)c(CN2CCN(C)CC2)c1 (configuration not stated)
inactive: [9] 94 % of control | [10] 94 % of control | [11] 94 % of control

C=CCNC(=S)NNC(=O)CCCC(=O)NNC(=S)NCC=C
inactive: [1] 90 % of control | [2] 93 % of control | [3] 102 % of control

COc1ccc(N2C=C(c3ccccc3)CC2=O)cc1
inactive: dose: 100.0 mg/kg/injection, schedule: Q04DX002 (ip), vehicle: Klucel (hydroxypropylcellulose) (HPC) 94 % of control | dose: 200.0 mg/kg/injection, schedule: Q04DX002 (ip), vehicle: Klucel (hydroxypropylcellulose) (HPC) 94 % of control | dose: 400.0 mg/kg/injection, schedule: Q04DX002 (ip), vehicle: Klucel (hydroxypropylcellulose) (HPC) 97 % of control

CN1C(=O)CC(NC(=O)OCc2ccccc2)C1=O (configuration not stated)
inactive: [9] 95 % of control | [10] 103 % of control | [11] 96 % of control

O=[N+]([O-])c1ncn[nH]1
inactive: [8] 96 % of control | [9] 102 % of control | [10] 97 % of control | dose: 400.0 mg/kg/injection, schedule: Q01DX009 (ip), vehicle: saline with Tween-80 87 % of control | [11] 92 % of control
